As usually defined, the solubility (thermodynamic) is solubility found after equilibrating the solid with the medium.

Consider 11 compounds from article PMC9846560, “Silver-promoted solid-phase guanidinylation enables the first synthesis of arginine glycosylated Samoamide A cyclopeptide analogue” (Frontiers in Chemistry, 2023).

Converted amounts (≈) assume the structure as drawn. Where a SMILES comes first, the peptide text is derived from it.

The first series can be described thus: head-to-tail lactamisation of linear octapeptide (N-terminal Leu or Arg onto C-terminal Val or Arg), PyBOP (3 eq)/HOBt (3 eq)/DIPEA (6 eq), 0 °C to rt, 14 h. To be noted: the molecule shown is the open-chain precursor; 24-membered ring; DCM; 12.0 h.
As to `CC[C@H](C)[C@H](NC(=O)[C@H](Cc1ccccc1)NC(=O)[C@@H]1CCCN1C(=O)[C@H](CCCNC(=N)N[C@@H]1O[C@H](COC(C)=O)[C@@H](OC(C)=O)[C@H](OC(C)=O)[C@H]1NC(C)=O)NC(=O)[C@@H](N)CC(C)C)C(=O)N1CCC[C@H]1C(=O)N[C@@H](Cc1ccccc1)C(=O)N[C@H](C(=O)O)C(C)C` [H-Leu-Arg(N-GlcNAc(OAc)3)-Pro-Phe-Ile-Pro-Phe-Val-OH], the ring closure, overall yield came out at 20%.

Staying with this series, now noted: the molecule shown is the open-chain precursor; 24-membered ring; DCM; 14.0 h.
Turning to `CC[C@H](C)[C@H](NC(=O)[C@H](Cc1ccccc1)NC(=O)[C@H](CCCNC(=N)NS(=O)(=O)c1c(C)c(C)c2c(c1C)CC(C)(C)O2)NC(=O)[C@@H]1CCCN1C(=O)[C@@H](N)CC(C)C)C(=O)N1CCC[C@H]1C(=O)N[C@@H](Cc1ccccc1)C(=O)N[C@H](C(=O)O)C(C)C` [H-Leu-Pro-Arg(Pbf)-Phe-Ile-Pro-Phe-Val-OH], the ring closure, overall yield was 10%.
Compound `Cc1c(C)c(S(=O)(=O)NC(=N)NCCC[C@H](NC(=O)[C@H](Cc2ccccc2)NC(=O)[C@@H]2CCCN2C(=O)[C@@H]2CCCN2C(=O)[C@@H](N)CC(C)C)C(=O)N2CCC[C@H]2C(=O)N[C@@H](Cc2ccccc2)C(=O)N[C@H](C(=O)O)C(C)C)c(C)c2c1OC(C)(C)C2` [H-Leu-Pro-Pro-Phe-Arg(Pbf)-Pro-Phe-Val-OH] gave a ring closure, overall yield of 6%.
`CC[C@H](C)[C@H](NC(=O)[C@H](Cc1ccccc1)NC(=O)[C@@H]1CCCN1C(=O)[C@@H]1CCCN1C(=O)[C@@H](N)CC(C)C)C(=O)N1CCC[C@H]1C(=O)N[C@@H](CCCNC(=N)NS(=O)(=O)c1c(C)c(C)c2c(c1C)CC(C)(C)O2)C(=O)N[C@H](C(=O)O)C(C)C` [H-Leu-Pro-Pro-Phe-Ile-Pro-Arg(Pbf)-Val-OH]: the ring closure, overall yield was 4%.
Still for that read-out and setting: next, `CC[C@H](C)[C@H](NC(=O)[C@H](Cc1ccccc1)NC(=O)[C@@H]1CCCN1C(=O)[C@@H]1CCCN1C(=O)[C@@H](N)CC(C)C)C(=O)N[C@@H](CCCNC(=N)NS(=O)(=O)c1c(C)c(C)c2c(c1C)CC(C)(C)O2)C(=O)N[C@@H](Cc1ccccc1)C(=O)N[C@H](C(=O)O)C(C)C` [H-Leu-Pro-Pro-Phe-Ile-Arg(Pbf)-Phe-Val-OH]: 5%.
In turn, `CC[C@H](C)[C@H](NC(=O)[C@H](Cc1ccccc1)NC(=O)[C@@H]1CCCN1C(=O)[C@@H]1CCCN1C(=O)[C@@H](N)CCCNC(=N)NS(=O)(=O)c1c(C)c(C)c2c(c1C)CC(C)(C)O2)C(=O)N1CCC[C@H]1C(=O)N[C@@H](Cc1ccccc1)C(=O)N[C@H](C(=O)O)C(C)C` [H-Arg(Pbf)-Pro-Pro-Phe-Ile-Pro-Phe-Val-OH] returned a ring closure, overall yield of 9%.
On the same count and under the same terms, for `CC[C@H](C)[C@H](NC(=O)[C@H](Cc1ccccc1)NC(=O)[C@@H]1CCCN1C(=O)[C@@H]1CCCN1C(=O)[C@@H](N)CC(C)C)C(=O)N1CCC[C@H]1C(=O)N[C@@H](Cc1ccccc1)C(=O)N[C@@H](CCCNC(=N)NS(=O)(=O)c1c(C)c(C)c2c(c1C)CC(C)(C)O2)C(=O)O` [H-Leu-Pro-Pro-Phe-Ile-Pro-Phe-Arg(Pbf)-OH] the value was 6%.
Same read-out and setting: for `CC[C@H](C)[C@H](NC(=O)[C@H](Cc1ccccc1)NC(=O)[C@@H]1CCCN1C(=O)[C@@H]1CCCN1C(=O)[C@@H](N)CC(C)C)C(=O)N1CCC[C@H]1C(=O)N[C@@H](Cc1ccccc1)C(=O)N[C@H](C(=O)O)C(C)C` [H-Leu-Pro-Pro-Phe-Ile-Pro-Phe-Val-OH] the value was 15%; for `CC[C@H](C)[C@H](NC(=O)[C@H](Cc1ccccc1)NC(=O)[C@@H]1CCCN1C(=O)[C@H](CCCNC(=N)NS(=O)(=O)c1c(C)c(C)c2c(c1C)CC(C)(C)O2)NC(=O)[C@@H](N)CC(C)C)C(=O)N1CCC[C@H]1C(=O)N[C@@H](Cc1ccccc1)C(=O)N[C@H](C(=O)O)C(C)C` [H-Leu-Arg(Pbf)-Pro-Phe-Ile-Pro-Phe-Val-OH], 10%; for `CC[C@H](C)[C@H](NC(=O)[C@H](CCCNC(=N)NS(=O)(=O)c1c(C)c(C)c2c(c1C)CC(C)(C)O2)NC(=O)[C@@H]1CCCN1C(=O)[C@@H]1CCCN1C(=O)[C@@H](N)CC(C)C)C(=O)N1CCC[C@H]1C(=O)N[C@@H](Cc1ccccc1)C(=O)N[C@H](C(=O)O)C(C)C` [H-Leu-Pro-Pro-Arg(Pbf)-Ile-Pro-Phe-Val-OH], 8%.

A further series can be described thus: Solubility test (water solubility, saturated solution). The format is physicochemical. Conditions: water (saturated aqueous solution), from solid: saturated aqueous solution at 25°C, sonicated approx. 10 min, centrifuged, supernatant diluted, UV absorbance at 214 nm against Samoamide A standard curve (C = 0.4646A - 0.0201). On the procedure:
Samoamide A was precisely weighed, and 1 mg was placed in a 10 ml centrifuge tube and diluted to scale with 95% ethanol. Then, 0, 200, 400, 600, 800, 1,000 μl aliquots were pipetted in a 5 ml centrifuge tube and adjusted to 1 ml with 95% ethanol, and the aqueous solutions were measured on a scale, sonicated for 5 min, and placed at room temperature. An additional 1 ml of 95% ethanol was added, and water was added to the same method as the blank. The absorbance values were measured at 214 nm to obtain the linear regression equation of the standard curve.
Sufficient amounts of Samoamide A and its glycosylated derivatives were dissolved in aqueous solutions at a constant temperature of 25°C, sonicated for approximately 10 min, centrifuged and allowed to settle to remove the insoluble matter from the solution, and the upper layer of supernatant was taken, that is, the saturated solution. After the saturated solution was properly diluted, its absorbance value was measured at 214 nm, and the concentration of the saturated solution was calculated by substituting the above equation ([Chevalier et al., 2001]).
With `CC[C@H](C)[C@@H]1NC(=O)[C@@H]2CCCN2C(=O)[C@H](Cc2ccccc2)NC(=O)[C@H](C(C)C)NC(=O)[C@H](CC(C)C)NC(=O)[C@@H]2CCCN2C(=O)[C@@H]2CCCN2C(=O)[C@H](Cc2ccccc2)NC1=O` [Samoamide A] (cyclo(LVFPIFPP)), the thermodynamic solubility came out at 730 µg/mL (≈ 801 µM).
